Where no end group is shown, it is not given here.
T1: His6-NisKex (NisK extracellular region) (Lactococcus lactis CV56, UniProt P42707 36-144)
T1 construct: source: E. coli (pET28a), purified
T1 sequence (looked up): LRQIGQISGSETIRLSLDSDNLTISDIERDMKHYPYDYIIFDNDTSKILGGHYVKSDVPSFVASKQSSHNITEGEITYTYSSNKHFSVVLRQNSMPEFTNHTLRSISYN


Assays:
NisK = experiment: Far-Western blotting, b-nisin binding to NisK; design: species or system Lactococcus lactis; conditions: membrane proteins of L. lactis MG1363 RKNlacZ, SDS-PAGE, PVDF, denatured and renatured; biotin-labelled nisin, HRP-streptavidin detection
Method: (§1) Lactococcus lactis MG1363 RKNlacZ mutant cells were harvested from 500 ml broth when OD600 reached 0.6–0.7, washed with PBS buffer (pH 7.4) once and resuspended in 20 ml PBS buffer. After lysing by sonication, cells were centrifuged at 6,000 g for 1 h to remove intact cells. The supernatant was ultra-centrifuged at 120,000 g for 2 h to separate soluble (cytoplasmic fraction) and insoluble (cell membrane fraction) proteins.
Nisin was labeled by biotin according to the method shown by ([Koteva et al., 2010]) in Beijing Biosynthesis Biotechnology Co., Ltd.. Briefly, nisin peptide was resolved by NaHCO3 (0.1 M, pH = 9.0) and incubated with biotin. Nisin labeled with biotin was purified by High Performance Liquid Chromatography and was named as b-nisin. The insoluble (cell membrane fraction) proteins were separated from L. lactis MG1363 RKNlacZ mutant cells. Far-Western blotting assays were performed using a modified protocol as described by ([Wu Y. et al., 2007]). Briefly, the insoluble proteins were firstly separated by SDS-PAGE, and transferred to a PVDF membrane as in a standard Western blotting. The proteins in the membrane were then denatured and renatured. […] The horseradish peroxidase (HRP) conjugated streptavidin was used as the secondary antibody, and the lanes indicating b-nisin binding to NisK or NisK mutants were detected by photographic film. […]

NisK mutant F133A = experiment: Far-Western blotting, b-nisin binding to NisK mutant; design: species or system Lactococcus lactis; conditions: membrane protein of strain F133A; biotin-labelled nisin, HRP-streptavidin
Method: as §1
(§2) Nisin was labeled by biotin according to the method shown by ([Koteva et al., 2010]) in Beijing Biosynthesis Biotechnology Co., Ltd.. Briefly, nisin peptide was resolved by NaHCO3 (0.1 M, pH = 9.0) and incubated with biotin. Nisin labeled with biotin was purified by High Performance Liquid Chromatography and was named as b-nisin. The insoluble (cell membrane fraction) proteins were separated from L. lactis MG1363 RKNlacZ mutant cells. Far-Western blotting assays were performed using a modified protocol as described by ([Wu Y. et al., 2007]). Briefly, the insoluble proteins were firstly separated by SDS-PAGE, and transferred to a PVDF membrane as in a standard Western blotting. The proteins in the membrane were then denatured and renatured. The membrane is then blocked and probed with b-nisin. The horseradish peroxidase (HRP) conjugated streptavidin was used as the secondary antibody, and the lanes indicating b-nisin binding to NisK or NisK mutants were detected by photographic film.
(§3) In order to clarify whether the important residues in NisK affected the interaction between nisin and NisK, the membrane proteins from L. lactis MG1363 RKNlacZ strain and the mutant strain M66A, D72A, Y113A, F133A, 69–73A5, and 74–76A3 were extracted. Nisin was labeled by biotin, and the modified product was named by b-nisin. The interaction between b-nisin and membrane proteins was studied by far-Western blotting assay.

NisK mutant 74–76A3 = experiment: as above; design: species or system Lactococcus lactis; conditions: membrane protein of strain 74–76A3; biotin-labelled nisin, HRP-streptavidin
Method: as §1, §2, §3

NisK mutant M66A = experiment: as above; design: species or system Lactococcus lactis; conditions: membrane protein of strain M66A; biotin-labelled nisin, HRP-streptavidin
Method: as §1, §2, §3

NisK mutant 69–73A5 = experiment: as above; design: species or system Lactococcus lactis; conditions: membrane protein of strain 69–73A5; biotin-labelled nisin, HRP-streptavidin
Method: as §1, §2, §3

NisK mutant Y113A = experiment: as above; design: species or system Lactococcus lactis; conditions: membrane protein of strain Y113A; biotin-labelled nisin, HRP-streptavidin
Method: as §1, §2, §3

NisK mutant D72A = experiment: as above; design: species or system Lactococcus lactis; conditions: membrane protein of strain D72A; biotin-labelled nisin, HRP-streptavidin
Method: as §1, §2, §3

[1] = target: T1, His6-NisKex (NisK extracellular region); experiment: SPR; BIACORE3000; His6-NisKex immobilised on a CM5 chip by amide coupling to 1000 RU; nisin in HBS-T as analyte, 260 to 8.125 μM in twofold dilution, 30 μl/min, 25°C; 1:1 (Langmuir) model with local fitted Rmax; conditions: both partners purified

Row | koff [1] [s⁻¹] | kon [1] [M⁻¹ s⁻¹] | Molecule | binding to NisK on far-Western blot (NisK) | binding to NisK mutant on far-Western blot (NisK mutant F133A) | binding to NisK mutant on far-Western blot (NisK mutant 74–76A3) | binding to NisK mutant on far-Western blot (NisK mutant M66A) | binding to NisK mutant on far-Western blot (NisK mutant 69–73A5) | binding to NisK mutant on far-Western blot (NisK mutant Y113A) | binding to NisK mutant on far-Western blot (NisK mutant D72A)
1 | – | – | b-nisin: Nisin labeled with biotin, purified by High Performance Liquid Chromatography (ITSISLCTPGCKTGALMGCNMKTATCHCSIHVSK; ends and bridges not checked; also: labelled with biotin, site not given here) | labeled a membrane protein of about 51.5 kDa | did not show b-nisin binding bands | did not show b-nisin binding bands | did not show b-nisin binding bands | did not show b-nisin binding bands | did not show b-nisin binding bands | did not show b-nisin binding bands
2 | 1 | 65.2 | ITSISLCTPGCKTGALMGCNMKTATCHCSIHVSK (peptide, UniProt P13068 24-57, looked up, also called signal peptide nisin; nisin A; source: purified from commercial nisin product (Yinxiang, Zhejiang, China)) [nisin] | – | – | – | – | – | – | –
